Test results: ChEMBL document CHEMBL5291721, “A preclinical secondary pharmacology resource illuminates target-adverse drug reaction associations of marketed drugs” (Nat Commun, 2023)

Columns and labels:
[1] = biological target: T1, Alpha-1A adrenergic receptor (Homo sapiens, UniProt P35348); assay type: functional, cell-based
T1 sequence (P35348 whole entry): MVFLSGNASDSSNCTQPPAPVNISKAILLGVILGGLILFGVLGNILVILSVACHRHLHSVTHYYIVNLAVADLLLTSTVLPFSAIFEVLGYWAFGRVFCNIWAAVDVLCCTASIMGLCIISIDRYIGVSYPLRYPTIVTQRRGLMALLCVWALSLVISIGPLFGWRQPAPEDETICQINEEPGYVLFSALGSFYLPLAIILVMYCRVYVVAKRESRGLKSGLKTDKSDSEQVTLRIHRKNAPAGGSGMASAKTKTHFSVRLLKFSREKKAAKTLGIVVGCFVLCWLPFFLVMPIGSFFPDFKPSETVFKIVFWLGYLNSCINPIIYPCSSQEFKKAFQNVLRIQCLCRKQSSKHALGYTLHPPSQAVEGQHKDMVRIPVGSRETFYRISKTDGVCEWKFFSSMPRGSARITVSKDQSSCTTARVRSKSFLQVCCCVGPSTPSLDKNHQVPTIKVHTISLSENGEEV

Vasopressin V2 receptor = Vasopressin V2 receptor (Homo sapiens, UniProt P30518)
Motilin receptor = Motilin receptor (Homo sapiens, UniProt O43193)
[2] = biological target: Sodium-dependent dopamine transporter (Homo sapiens, UniProt Q01959)
[3] = biological target: 3',5'-cyclic-AMP phosphodiesterase 4D (Homo sapiens, UniProt Q08499); assay type: functional
[4] = biological target: Glutamate receptor ionotropic, NMDA 1 (Rattus norvegicus, UniProt P35439)
[5] = biological target: Neuronal acetylcholine receptor subunit alpha-4 (Homo sapiens, UniProt P43681)
[6] = biological target: cGMP-inhibited 3',5'-cyclic phosphodiesterase 3A (Homo sapiens, UniProt Q14432); assay type: functional
Histamine H2 receptor = Histamine H2 receptor (Homo sapiens, UniProt P25021); assay type: functional, cell-based
[7] = biological target: T1, Alpha-1A adrenergic receptor; assay type: functional, cell-based; remark: listed apart in the source
[8] = biological target: T2, 5-hydroxytryptamine receptor 3A (Homo sapiens, UniProt P46098); assay type: functional
T2 sequence (P46098 whole entry): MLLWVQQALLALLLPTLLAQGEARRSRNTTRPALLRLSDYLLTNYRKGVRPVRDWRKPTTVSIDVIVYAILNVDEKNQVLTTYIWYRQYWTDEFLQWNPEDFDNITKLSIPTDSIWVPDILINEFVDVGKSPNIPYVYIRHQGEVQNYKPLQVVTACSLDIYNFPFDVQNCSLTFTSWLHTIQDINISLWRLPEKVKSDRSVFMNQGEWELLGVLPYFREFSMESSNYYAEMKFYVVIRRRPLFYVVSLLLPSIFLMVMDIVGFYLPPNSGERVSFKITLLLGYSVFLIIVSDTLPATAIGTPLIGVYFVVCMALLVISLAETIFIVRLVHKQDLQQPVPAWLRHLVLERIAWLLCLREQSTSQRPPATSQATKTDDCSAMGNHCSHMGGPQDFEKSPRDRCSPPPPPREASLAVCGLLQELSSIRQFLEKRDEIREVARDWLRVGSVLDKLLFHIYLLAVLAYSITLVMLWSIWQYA

[9] = biological target: Beta-2 adrenergic receptor (Homo sapiens, UniProt P07550)
[10] = biological target: 5-hydroxytryptamine receptor 2B (Homo sapiens, UniProt P41595); assay type: functional, cell-based
Histamine H1 receptor = Histamine H1 receptor (Homo sapiens, UniProt P35367)
Adenosine receptor A2a = Adenosine receptor A2a (Homo sapiens, UniProt P29274)
[11] = biological target: Voltage-gated inwardly rectifying potassium channel KCNH2 (Homo sapiens, UniProt Q12809); assay type: functional
[12] = biological target: Gamma-aminobutyric acid receptor subunit alpha-1 (Rattus norvegicus, UniProt P62813)
Glucocorticoid receptor = biological target: T3, Glucocorticoid receptor (Homo sapiens, UniProt P04150)
T3 sequence (P04150 whole entry): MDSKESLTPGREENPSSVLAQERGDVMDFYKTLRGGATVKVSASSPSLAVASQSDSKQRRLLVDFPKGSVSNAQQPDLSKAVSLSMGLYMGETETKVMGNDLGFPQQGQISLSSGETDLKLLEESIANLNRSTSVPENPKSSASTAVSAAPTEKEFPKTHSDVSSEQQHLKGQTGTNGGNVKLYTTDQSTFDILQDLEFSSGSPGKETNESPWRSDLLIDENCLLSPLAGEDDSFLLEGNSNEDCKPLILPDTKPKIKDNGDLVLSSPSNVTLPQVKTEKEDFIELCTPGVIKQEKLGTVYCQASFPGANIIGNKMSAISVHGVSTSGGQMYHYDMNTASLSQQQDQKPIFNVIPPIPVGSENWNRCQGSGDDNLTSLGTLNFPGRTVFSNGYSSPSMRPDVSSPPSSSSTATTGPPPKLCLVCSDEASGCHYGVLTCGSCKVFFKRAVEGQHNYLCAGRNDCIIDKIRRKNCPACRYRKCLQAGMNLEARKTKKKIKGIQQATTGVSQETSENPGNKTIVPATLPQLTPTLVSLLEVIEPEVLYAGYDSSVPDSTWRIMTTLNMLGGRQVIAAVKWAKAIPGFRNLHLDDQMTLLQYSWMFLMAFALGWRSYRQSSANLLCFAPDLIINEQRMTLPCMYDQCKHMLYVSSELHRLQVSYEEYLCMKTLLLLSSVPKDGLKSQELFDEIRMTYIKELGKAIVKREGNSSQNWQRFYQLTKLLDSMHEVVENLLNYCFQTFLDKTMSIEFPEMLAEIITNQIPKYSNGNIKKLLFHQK
Further: assay procedure not described here.

Chain of Adenosine receptor A2a (P29274 whole entry): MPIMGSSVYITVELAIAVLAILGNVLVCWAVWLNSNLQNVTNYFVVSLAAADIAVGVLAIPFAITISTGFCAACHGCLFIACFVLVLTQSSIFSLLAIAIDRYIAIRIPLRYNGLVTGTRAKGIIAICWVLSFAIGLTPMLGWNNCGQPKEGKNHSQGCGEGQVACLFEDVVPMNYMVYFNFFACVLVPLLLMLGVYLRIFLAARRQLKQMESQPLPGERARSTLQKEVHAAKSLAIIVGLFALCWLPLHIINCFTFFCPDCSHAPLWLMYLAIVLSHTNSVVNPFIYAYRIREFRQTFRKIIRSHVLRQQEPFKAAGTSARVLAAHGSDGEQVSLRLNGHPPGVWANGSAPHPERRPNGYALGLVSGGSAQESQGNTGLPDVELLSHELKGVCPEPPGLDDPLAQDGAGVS
Chain of Neuronal acetylcholine receptor subunit alpha-4 (P43681 whole entry): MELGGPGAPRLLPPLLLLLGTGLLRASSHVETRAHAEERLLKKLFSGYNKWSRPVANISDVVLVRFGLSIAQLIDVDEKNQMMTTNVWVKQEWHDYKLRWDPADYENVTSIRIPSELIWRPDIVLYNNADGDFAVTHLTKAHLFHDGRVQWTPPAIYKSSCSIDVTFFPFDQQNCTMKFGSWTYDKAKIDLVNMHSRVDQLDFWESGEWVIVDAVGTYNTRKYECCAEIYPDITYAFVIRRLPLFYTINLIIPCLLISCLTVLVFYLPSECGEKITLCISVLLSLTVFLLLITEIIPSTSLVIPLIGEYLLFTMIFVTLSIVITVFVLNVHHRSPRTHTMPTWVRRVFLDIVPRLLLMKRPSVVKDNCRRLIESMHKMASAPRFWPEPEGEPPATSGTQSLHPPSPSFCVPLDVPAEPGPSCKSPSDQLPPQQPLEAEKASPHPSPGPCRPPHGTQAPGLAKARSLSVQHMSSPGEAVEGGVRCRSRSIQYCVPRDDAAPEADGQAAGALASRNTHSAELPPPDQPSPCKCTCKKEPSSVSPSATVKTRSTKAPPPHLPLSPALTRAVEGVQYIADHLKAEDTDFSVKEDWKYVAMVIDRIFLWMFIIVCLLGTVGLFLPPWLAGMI
Chain of Histamine H1 receptor (P35367 whole entry): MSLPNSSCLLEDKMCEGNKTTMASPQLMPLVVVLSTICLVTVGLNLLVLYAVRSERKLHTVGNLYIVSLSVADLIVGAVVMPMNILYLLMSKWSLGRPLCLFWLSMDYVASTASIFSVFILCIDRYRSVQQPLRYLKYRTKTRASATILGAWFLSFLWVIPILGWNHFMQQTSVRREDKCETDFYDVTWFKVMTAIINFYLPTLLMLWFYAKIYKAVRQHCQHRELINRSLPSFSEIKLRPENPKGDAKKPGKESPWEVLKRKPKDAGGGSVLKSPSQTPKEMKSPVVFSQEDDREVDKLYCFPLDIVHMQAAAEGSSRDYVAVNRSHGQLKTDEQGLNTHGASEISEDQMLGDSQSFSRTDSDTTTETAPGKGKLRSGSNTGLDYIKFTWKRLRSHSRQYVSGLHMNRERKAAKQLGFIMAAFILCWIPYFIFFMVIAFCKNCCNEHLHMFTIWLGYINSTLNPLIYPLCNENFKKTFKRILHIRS
Chain of Beta-2 adrenergic receptor (P07550 whole entry): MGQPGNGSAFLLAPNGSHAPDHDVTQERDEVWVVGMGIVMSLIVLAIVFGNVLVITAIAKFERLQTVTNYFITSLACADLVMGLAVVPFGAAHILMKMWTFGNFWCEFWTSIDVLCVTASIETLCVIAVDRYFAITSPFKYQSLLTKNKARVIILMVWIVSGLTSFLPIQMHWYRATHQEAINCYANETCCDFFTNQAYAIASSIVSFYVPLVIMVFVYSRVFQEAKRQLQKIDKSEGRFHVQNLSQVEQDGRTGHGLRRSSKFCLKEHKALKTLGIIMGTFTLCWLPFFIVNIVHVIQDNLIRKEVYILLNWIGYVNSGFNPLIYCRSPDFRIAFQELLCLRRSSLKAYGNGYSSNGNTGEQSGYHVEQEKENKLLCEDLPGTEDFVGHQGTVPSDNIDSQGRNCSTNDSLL
Chain of Motilin receptor (O43193 whole entry): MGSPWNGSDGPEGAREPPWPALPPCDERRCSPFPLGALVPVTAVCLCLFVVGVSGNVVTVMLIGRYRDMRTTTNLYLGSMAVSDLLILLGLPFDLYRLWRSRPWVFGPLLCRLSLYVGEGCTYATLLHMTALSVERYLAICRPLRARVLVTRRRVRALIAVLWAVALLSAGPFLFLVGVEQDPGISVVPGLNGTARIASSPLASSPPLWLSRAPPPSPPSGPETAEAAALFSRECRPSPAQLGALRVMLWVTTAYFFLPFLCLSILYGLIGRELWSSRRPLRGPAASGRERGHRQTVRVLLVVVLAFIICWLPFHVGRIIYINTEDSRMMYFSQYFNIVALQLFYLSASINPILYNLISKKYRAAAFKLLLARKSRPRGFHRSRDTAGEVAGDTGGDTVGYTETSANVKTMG
Chain of Voltage-gated inwardly rectifying potassium channel KCNH2 (Q12809 whole entry): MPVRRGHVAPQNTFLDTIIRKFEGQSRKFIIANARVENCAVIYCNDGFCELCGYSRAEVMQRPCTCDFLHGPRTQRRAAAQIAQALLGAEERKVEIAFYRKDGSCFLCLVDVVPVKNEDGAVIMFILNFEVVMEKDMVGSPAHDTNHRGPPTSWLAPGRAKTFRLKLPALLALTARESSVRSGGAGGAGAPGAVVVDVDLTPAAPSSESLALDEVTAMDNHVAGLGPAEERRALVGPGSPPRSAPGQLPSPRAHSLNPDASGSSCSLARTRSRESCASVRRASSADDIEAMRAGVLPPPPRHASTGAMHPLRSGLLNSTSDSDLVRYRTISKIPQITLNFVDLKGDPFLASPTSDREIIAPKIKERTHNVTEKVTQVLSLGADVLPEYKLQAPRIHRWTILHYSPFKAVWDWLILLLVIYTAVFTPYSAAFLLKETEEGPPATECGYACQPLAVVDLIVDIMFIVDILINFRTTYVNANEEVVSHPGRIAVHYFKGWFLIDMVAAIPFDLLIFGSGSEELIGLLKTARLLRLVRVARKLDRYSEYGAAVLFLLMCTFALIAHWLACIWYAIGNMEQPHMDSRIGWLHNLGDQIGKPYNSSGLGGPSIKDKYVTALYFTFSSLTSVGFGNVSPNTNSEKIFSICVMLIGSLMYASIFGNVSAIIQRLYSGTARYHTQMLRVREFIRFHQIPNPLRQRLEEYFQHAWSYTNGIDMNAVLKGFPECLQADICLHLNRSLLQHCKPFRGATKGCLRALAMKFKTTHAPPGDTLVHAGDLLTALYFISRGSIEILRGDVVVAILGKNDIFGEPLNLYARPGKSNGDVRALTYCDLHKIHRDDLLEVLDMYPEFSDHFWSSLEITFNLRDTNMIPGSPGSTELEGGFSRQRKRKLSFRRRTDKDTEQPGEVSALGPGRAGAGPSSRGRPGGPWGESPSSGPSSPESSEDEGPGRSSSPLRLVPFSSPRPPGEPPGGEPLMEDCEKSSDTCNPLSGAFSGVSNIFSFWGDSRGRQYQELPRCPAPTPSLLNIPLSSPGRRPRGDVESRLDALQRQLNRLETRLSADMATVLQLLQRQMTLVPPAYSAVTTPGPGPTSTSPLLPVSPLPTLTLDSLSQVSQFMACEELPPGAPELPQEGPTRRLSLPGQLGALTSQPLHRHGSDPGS
Chain of 3',5'-cyclic-AMP phosphodiesterase 4D (Q08499 whole entry): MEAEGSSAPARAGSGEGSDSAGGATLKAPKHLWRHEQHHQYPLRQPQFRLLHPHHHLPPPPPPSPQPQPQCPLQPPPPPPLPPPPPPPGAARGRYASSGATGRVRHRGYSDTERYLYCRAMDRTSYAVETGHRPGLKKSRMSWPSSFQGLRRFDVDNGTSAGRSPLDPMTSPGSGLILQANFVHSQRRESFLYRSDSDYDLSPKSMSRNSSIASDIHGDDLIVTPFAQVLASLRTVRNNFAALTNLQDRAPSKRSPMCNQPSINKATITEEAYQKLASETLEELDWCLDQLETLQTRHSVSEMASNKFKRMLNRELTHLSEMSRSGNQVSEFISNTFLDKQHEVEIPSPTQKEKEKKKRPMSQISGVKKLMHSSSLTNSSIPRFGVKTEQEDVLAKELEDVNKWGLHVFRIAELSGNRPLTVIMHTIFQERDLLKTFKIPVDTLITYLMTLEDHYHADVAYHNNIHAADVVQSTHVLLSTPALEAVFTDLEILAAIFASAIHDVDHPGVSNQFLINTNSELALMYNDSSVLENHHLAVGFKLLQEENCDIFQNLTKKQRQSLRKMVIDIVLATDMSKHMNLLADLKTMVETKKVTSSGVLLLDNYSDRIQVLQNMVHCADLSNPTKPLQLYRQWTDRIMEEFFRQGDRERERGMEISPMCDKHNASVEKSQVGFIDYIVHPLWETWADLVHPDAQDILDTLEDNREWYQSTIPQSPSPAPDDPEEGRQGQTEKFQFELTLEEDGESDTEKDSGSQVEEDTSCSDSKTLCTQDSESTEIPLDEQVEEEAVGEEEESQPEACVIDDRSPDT
Chain of Histamine H2 receptor (P25021 whole entry): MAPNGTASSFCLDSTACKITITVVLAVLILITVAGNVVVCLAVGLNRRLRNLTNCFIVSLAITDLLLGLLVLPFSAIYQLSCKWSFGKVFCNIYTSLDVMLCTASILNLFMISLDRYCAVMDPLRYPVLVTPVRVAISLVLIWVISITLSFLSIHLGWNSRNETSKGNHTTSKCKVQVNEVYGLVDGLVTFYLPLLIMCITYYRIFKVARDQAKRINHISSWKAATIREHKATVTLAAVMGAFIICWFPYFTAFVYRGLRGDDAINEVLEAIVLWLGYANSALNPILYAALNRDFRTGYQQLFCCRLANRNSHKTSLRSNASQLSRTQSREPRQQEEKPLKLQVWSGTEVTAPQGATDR

| SMILES | AC50 [1] | AC50 (Vasopressin V2 receptor) | AC50 (Motilin receptor) | AC50 [2] | AC50 [3] | AC50 [4] | AC50 [5] | AC50 [6] | AC50 (Histamine H2 receptor) | AC50 [7] | AC50 [8] | AC50 [9] | AC50 [10] | AC50 (Histamine H1 receptor) | AC50 (Adenosine receptor A2a) | AC50 [11] | AC50 [12] | AC50 (Glucocorticoid receptor) |
| --- | --- | --- | --- | --- | --- | --- | --- | --- | --- | --- | --- | --- | --- | --- | --- | --- | --- | --- |
| CC(=O)SC[C@@H](C)C(=O)N1CCC[C@H]1C(=O)N[C@@H](Cc1ccccc1)C(=O)O | > 30 µM | > 30 µM | > 30 µM | > 30 µM | > 30 µM | > 30 µM | > 30 µM | > 30 µM | > 30 µM | > 30 µM | > 30 µM | > 30 µM | > 30 µM | > 30 µM | > 30 µM | > 30 µM | > 30 µM | – |
| C[N@+]1(CCF)[C@@H]2CC[C@H]1C[C@@H](OC(=O)C(O)(c1ccccc1)c1ccccc1)C2 | > 30 µM | > 30 µM | > 30 µM | > 30 µM | > 30 µM | > 30 µM | > 30 µM | > 30 µM | > 30 µM | > 30 µM | > 30 µM | > 30 µM | > 30 µM | 15 µM | > 30 µM | 2.38 µM | > 30 µM | > 30 µM |
| CC(=O)O[C@H](CC(=O)[O-])C[N+](C)(C)C [ACETYLCARNITINE] | > 30 µM | > 30 µM | > 30 µM | > 30 µM | > 30 µM | > 30 µM | > 30 µM | > 30 µM | > 30 µM | > 30 µM | > 30 µM | > 30 µM | > 30 µM | 5.2 µM | > 30 µM | > 30 µM | > 30 µM | > 30 µM |
| O=C(O)CCNC(=O)c1ccccc1 [BETAMIPRON] | > 30 µM | > 30 µM | > 30 µM | > 30 µM | > 30 µM | > 30 µM | > 30 µM | > 30 µM | > 30 µM | > 30 µM | > 30 µM | > 30 µM | > 30 µM | – | > 30 µM | > 30 µM | > 30 µM | > 30 µM |
| Oc1ccc2c(c1)[C@@]13CCCC[C@@]1(O)[C@@H](C2)N(CC1CCC1)CC3 [BUTORPHANOL] | > 30 µM | > 30 µM | > 30 µM | > 30 µM | > 30 µM | > 30 µM | > 30 µM | > 30 µM | > 30 µM | > 30 µM | > 30 µM | – | > 30 µM | > 30 µM | > 30 µM | 12 µM | – | > 30 µM |
| C=C1/C(=C\C=C2/CCC[C@]3(C)[C@@H]([C@H](C)/C=C/[C@@H](O)C4CC4)CC[C@@H]23)C[C@@H](O)C[C@@H]1O [CALCIPOTRIENE] | > 30 µM | > 30 µM | > 30 µM | > 30 µM | > 30 µM | > 30 µM | > 30 µM | > 30 µM | > 30 µM | > 30 µM | > 30 µM | > 30 µM | > 30 µM | > 30 µM | > 30 µM | > 30 µM | > 30 µM | > 30 µM |
| C=C[C@@]1(C)CC(=O)[C@]2(O)[C@@]3(C)[C@@H](O)CCC(C)(C)[C@@H]3[C@H](O)[C@H](OC(C)=O)[C@@]2(C)O1 [COLFORSIN] | 3.5 µM | > 30 µM | > 30 µM | > 30 µM | > 30 µM | > 30 µM | > 30 µM | > 30 µM | – | > 30 µM | > 30 µM | > 30 µM | > 30 µM | > 30 µM | > 30 µM | > 30 µM | > 30 µM | > 30 µM |
| COc1cc2ncnc(Nc3ccc(F)c(Cl)c3)c2cc1NC(=O)/C=C/CN1CCCCC1 [DACOMITINIB ANHYDROUS] | > 30 µM | – | – | 15 µM | 25 µM | – | > 30 µM | > 30 µM | – | > 30 µM | – | – | – | > 30 µM | > 30 µM | – | – | – |
| CC(=O)OCC(=O)[C@@]1(O)[C@H](C)C[C@H]2[C@@H]3CCC4=CC(=O)C=C[C@]4(C)[C@@]3(F)[C@@H](O)C[C@@]21C [DEXAMETHASONE ACETATE] | > 30 µM | > 30 µM | > 10 µM | > 30 µM | > 30 µM | > 10 µM | > 10 µM | > 30 µM | > 10 µM | > 30 µM | > 30 µM | > 10 µM | > 10 µM | > 10 µM | > 30 µM | > 30 µM | > 10 µM | – |
| Nc1cc(-c2ccncc2)c[nH]c1=O [INAMRINONE] | > 30 µM | > 30 µM | > 10 µM | > 30 µM | – | > 10 µM | > 10 µM | – | > 10 µM | > 30 µM | > 30 µM | > 10 µM | > 10 µM | – | > 30 µM | > 30 µM | > 10 µM | > 30 µM |
| CN(C(=O)c1c(O)c2ccccc2n(C)c1=O)c1ccccc1 [ROQUINIMEX] | > 30 µM | – | – | > 30 µM | > 30 µM | – | > 30 µM | > 30 µM | – | > 30 µM | – | – | – | > 30 µM | > 30 µM | – | – | – |
| CCN(CC)CCNC(=O)c1cc(S(C)(=O)=O)ccc1OC [TIAPRIDE] | > 30 µM | > 30 µM | > 30 µM | > 30 µM | > 30 µM | > 30 µM | > 30 µM | > 30 µM | > 30 µM | > 30 µM | > 30 µM | > 30 µM | > 30 µM | – | > 30 µM | 8.5 µM | > 30 µM | > 30 µM |
